Test results taken from patent US20250170102A1, “PHARMACEUTICAL COMPOSITION FOR INHIBITING FIBROSIS IN ORGANS” (NAGASAKI UNIVERSITY, priority 2022, published 2025).

Columns and labels:
[1] = tested on: human hepatic stellate cells (HSCs); assay: Ex vivo hydrostatic pressure loading test in human HSCs; assay type: cell-based; details: 10 nM losartan, 50 mmHg hydrostatic pressure 24 hours
Description: Primary human HSCs were purchased from ScienCell Research Laboratories. Cells were expanded by using stellate cell medium (ScienCell Research Laboratories) in a humidified incubator under 5% CO2 and 95% air at 37° C. The third passaged cells were used for the following experiments. A pneumatic pressurizing system (Strex. Inc) was used to induce hydrostatic pressure. Briefly, HSCs were seeded in 60-mm diameter culture dishes (5×10^4 cells/dish) and 4-well culture chamber slides (2×10^4 cells/well). Cells were incubated for 3 days to form about 70% confluent, and then half of the culture dishes and slides were randomly selected to be loaded by 50 mmHg hydrostatic pressure for 24 hours, with or without the addition of 10 nM losartan in medium. The inventors used 50 mmHg for experiments based on their preliminary experiments and a previous report (Yoshino et al., Commun Biol 3:152, 2020, Chen et al., Int J Biol Sci 15:2509-2521, 2019). As controls, non-hydrostatic pressure-loaded groups were provided for each of Losartan addition group and non-Losartan addition group. RT-qPCR was performed to evaluate the expression of RHOA, ROCK1, ROCK2, ACTA2, TGFB1, and COL1A1. Briefly, total RNA was isolated from HSCs using Quick-RNA MicoroPrep Kit, and 1.25 μg of RNA was reverse-transcribed using SuperScript VILO cDNA Synthesis Kit (Thermo Fisher Scientific). Quantitative PCR was carried out with SYBR Green real-time PCR Master Mix (Toyobo). The reactions were performed on a CFX96 real-time PCR System (BIO-RAD). The primer sequences are shown below. GAPDH was used for normalization. HSCs were fixed in 4% paraformaldehyde before blocked by 10% bovine serum albumin. After overnight incubation with the primary antibodies, cells were incubated with secondary antibodies for 1 hour at room temperature, and then mounted with medium containing DAPI. F-actin fibers were stained with TRITC-conjugated phalloidin in mounting medium. Immunofluorescences of stained cells were detected using a fluorescence microscope (FV10i, Olympus). For each staining, 10 images were taken from randomly selected fields at 60× magnification, and the mean fluorescence intensity was measured by ImageJ software. Statistical analysis was performed in the same manner as in Example 1.

[2] = tested on: UUO-induced renal fibrosis model mice; assay: Unilateral ureteral obstruction (UUO)-induced renal fibrosis model mice with losartan treatment; assay type: in vivo, C57BL/6 mice; details: for body weight: prior to UUO surgery and 1 and 2 weeks post-surgery, among all groups; for level of BUN in serum / level of CRE in serum / swelling of the left kidneys (hydronephrosis) / fibrosis area of kidney (Masson's trichrome staining): 2 weeks after UUO surgery; for level of BUN in serum / level of CRE in serum: compared to control group; for swelling of the left kidneys (hydronephrosis): versus control group; for fibrosis area of kidney (Masson's trichrome staining): versus left kidney of control group (UUO)
Text: C57BL/6 mice (8-week-old, CLEA) were used. The abdomen of mouse was opened under general anesthesia and the left ureter was ligated. The right ureter was not ligated and the right kidney served as a control. The surgical wound was then closed with a single-layer suture of the peritoneum, muscular layer and skin followed by closure of the surgical wound. UUO-induced renal fibrosis model is known to manifest the symptoms of hydronephrosis in the ligated kidney and then develop interstitial fibrosis caused by interstitial deposition of type IV collagen as well as apoptosis of tubular cells at day 3 post-UUO surgery. Post-UUO surgery mice were divided into three groups: low-dose losartan group (1 mg/kg, n=3), high-dose losartan group (3 mg/kg, n=3) and no losartan administration group (n=3). Low-dose losartan group was given losartan (FUJIFILM Wako Pure Chemical Corporation) in their drinking water at a final concentration of 4.6 mg/L, which providing an estimated daily dose of 1 mg/kg. High-dose losartan group was given losartan in their drinking water at a final concentration of 13.8 mg/L, which providing an estimated daily dose of 3 mg/kg. No losartan administration group was given drinking water without addition of losartan. Body weight was measured prior to UUO surgery and 1 and 2 weeks post-surgery. Mice were euthanized 2 weeks post-surgery. Prior to sacrifice, whole blood was collected from IVC and serum was separated. The levels of serum BUN and CRE were measured. The left and right kidneys were then harvested and photographed. Kidneys were fixed in 4% paraformaldehyde and embedded into paraffin block. Tissue sections of about 5 µm thickness were used for histological analysis. (3) Masson's trichrome staining and Hematoxylin and Eosin staining Tissue sections were deparaffinized and rehydrated. Masson's trichrome staining was performed using Trichrome Stain (Masson) Kit (Sigma-Aldrich) according to the manufacturer's instructions. Hematoxylin and Eosin (HE) staining was performed by a conventional method. Tissue specimens were observed under with an optical microscope (IX71, Olympus). Statistical analysis was performed in the same manner as in Example 1.

[3] = tested on: acute lung injury caused by mechanical stimulation; details: reported in non-patent literature 3; cited from earlier work
[4] = tested on: liver fibrosis caused by non-alcoholic steatohepatitis; details: rats; reported in non-patent literature 4; cited from earlier work
[5] = tested on: partial inferior vena cava ligation model mice (liver fibrosis); assay: Partial inferior vena cava ligation model mice with low-dose losartan treatment; assay type: in vivo, C57BL/6 mice
Text: C57BL/6 mice (10-week-old, CLEA) were used. All animal experiments were approved by the Institutional Animal Care and Use Committee of Nagasaki University, and carried out in accordance with the institutional guidelines.
IVC was separated and a small tube (0.9 mm diameter) was placed along with the anterior surface of IVC ((B) in FIG. 1). The tube was tightly ligated together with the IVC ((C) in FIG. 1), and immediately after that, the tube was gently removed ((D) in FIG. 1). The abdomen was then closed with a suture of the peritoneal muscle/fascia followed by closure of the skin. Removing the 0.9 mm diameter tube from IVC ligation was expected to reduce the cross-sectional area of IVC by about 80% based on Simonetto et al.
After all procedures, mice were divided into Losartan group (n=6), IVCL group (n=6) and Sham group (n=6). Losartan group was given losartan (FUJIFILM Wako
Pure Chemical Corporation) in their drinking water at a final concentration of 2.3 mg/L, which providing an estimated daily dose of 0.5 mg/kg. IVCL group was given drinking water without addition of any drug. Treatment was continued until the cessation of the experiments. Sham group received a sham operation including all above steps with the exception of partial IVC ligation, and was given drinking water without addition of any drug.
Mice were euthanized 8 weeks postoperatively. Prior to sacrifice, the body weight was measured, and whole blood was collected from IVC and serum was separated. The levels of serum ALT and AST were measured. The suprahepatic IVC was then transected and the liver was perfused with PBS through the portal vein to remove circulating blood and fibrinogen. The spleen and liver were harvested and weighed, and the spleen/body and liver/body weight ratios were calculated. Liver tissues were fixed in 4% paraformaldehyde and embedded into paraffin block. Tissue sections of about 5 um thickness were used for histological analysis.
Liver tissue sections were deparaffinized and rehydrated. Masson's trichrome staining was performed using Trichrome Stain (Masson) Kit (Sigma-Aldrich) according to the manufacturer's instructions, and then observed under an optical microscope (IX71, Olympus).
Immunohistochemistry analysis on the liver tissues was performed to understand the relevant mechanism. Briefly, liver tissue sections were blocked with 10% bovine serum albumin, and then incubated with primary antibodies (Table 1) overnight at 4°° C., followed by incubation with secondary antibodies (Table 2) for 1 hour at room temperature in the dark. Sections were then mounted with medium containing DAPI. Apoptotic cells were detected by the usage of TUNEL staining kit (Abcam, #ab66108) according to the manufacturer's instructions. Briefly, sections were incubated with DNA labeling solution at 37° C. for 60 min, followed by the addition of PI/RNase A solution for 30 min. Immunofluorescences of stained liver tissues were detected using a fluorescence microscope (FV10i, Olympus). For each staining, at least 10 images were taken from randomly selected fields at 60× magnification, and the mean fluorescence intensity was measured by ImageJ software.
All the results were presented as mean±SD. Statistical significance was determined by one-way analysis of variance (ANOVA) followed by Turkey's test. P value <0.05 was accepted as significant. GraphPad Prism 8 software was used for statistical analysis.

[6] = compared to pressure-loaded group without losartan
[7] = losartan 0.5 mg/kg/day in drinking water, 8 weeks after partial IVC ligation, among Sham, IVCL and Losartan groups
[8] = losartan 0.5 mg/kg/day in drinking water, 8 weeks after partial IVC ligation, compared with Sham group
[9] = losartan 0.5 mg/kg/day, 8 weeks, compared to IVCL group
[10] = losartan 0.5 mg/kg/day, 8 weeks, versus upregulation in IVCL group

CCCCc1nc(Cl)c(CO)n1Cc1ccc(-c2ccccc2-c2nn[nH]n2)cc1 [losartan]
expression of ROCK2 (immunohistochemistry) [1]: no significant change | expression of ROCK2 gene (RT-qPCR) [1]: no significant change | formation of actin stress fibers (phalloidin staining for F-actin) [1]: effectively reduced | expression of ACTA2 gene (RT-qPCR) [1, 6]: significantly decreased | expression of AT1R gene (RT-qPCR) [1, 6]: significantly decreased | expression of AT1R in the cytoplasm (immunohistochemistry) [1, 6]: significantly decreased | expression of AT1R in the nucleus (immunohistochemistry) [1, 6]: significantly decreased | expression of COL1A1 gene (RT-qPCR) [1, 6]: significantly decreased | expression of ROCK1 (immunohistochemistry) [1, 6]: significantly decreased | expression of ROCK1 gene (RT-qPCR) [1, 6]: significantly decreased | expression of RhoA (immunohistochemistry) [1, 6]: significantly decreased | expression of RhoA gene (RT-qPCR) [1, 6]: significantly decreased | expression of TGF-β1 (immunohistochemistry) [1, 6]: significantly decreased | expression of TGFB1 gene (RT-qPCR) [1, 6]: significantly decreased | expression of p-MLC2 (immunohistochemistry) [1, 6]: significantly decreased | expression of type 1 collagen (immunohistochemistry) [1, 6]: significantly decreased | expression of α-SMA (immunohistochemistry) [1, 6]: significantly decreased | body weight ([2]; high-dose losartan 3 mg/kg/day in drinking water): No significant change | level of BUN in serum ([2]; high-dose losartan 3 mg/kg/day): significantly decreased | level of CRE in serum ([2]; high-dose losartan 3 mg/kg/day): significantly decreased | swelling of the left kidneys (hydronephrosis) ([2]; high-dose losartan 3 mg/kg/day): significantly inhibited | fibrosis area of kidney (Masson's trichrome staining) ([2]; high-dose losartan 3 mg/kg/day): significant decreasing | body weight ([2]; low-dose losartan 1 mg/kg/day in drinking water): No significant change | level of BUN in serum ([2]; low-dose losartan 1 mg/kg/day): significantly decreased | level of CRE in serum ([2]; low-dose losartan 1 mg/kg/day): significantly decreased | swelling of the left kidneys (hydronephrosis) ([2]; low-dose losartan 1 mg/kg/day): significantly inhibited | fibrosis area of kidney (Masson's trichrome staining) ([2]; low-dose losartan 1 mg/kg/day): significant decreasing | acute lung injury caused by mechanical stimulation [3]: effectively relieves | liver fibrosis caused by non-alcoholic steatohepatitis [4]: mitigates | level of ALT in serum [5, 7]: not significantly different | level of AST in serum [5, 7]: not significantly different | liver/body weight ratio [5, 8]: kept at comparable levels | spleen/body weight ratio [5, 8]: kept at comparable levels | expression of ROCK2 in liver tissue (immunostaining) ([5]; losartan 0.5 mg/kg/day, 8 weeks, all groups): not substantially changed | changes in the lobular architecture of liver [5, 9]: effectively alleviated | fibrotic area of liver tissue (Masson's trichrome staining) [5, 9]: significantly decreased | percentage of apoptotic cells in liver tissue (TUNEL staining) ([5]; losartan 0.5 mg/kg/day, 8 weeks, compared to Sham group): not significantly changed | expression of α-SMA in liver tissue (immunostaining signal intensity) ([5]; losartan 0.5 mg/kg/day, 8 weeks, in contrast to IVCL group): significantly reduced | expression of ROCK1 in liver tissue (immunostaining) [5, 10]: significantly reduced | expression of RhoA in liver tissue (immunostaining) [5, 10]: significantly reduced | expression of p-MLC2 in liver tissue (immunostaining) [5, 10]: effectively attenuated
